Experimental data from patent EP1561465A2, “Methods of use of fluoroquinolone compounds against bacteria” (LG Life Sciences, Ltd., priority 1999, dated 2001).
≈ marks a conversion by molar mass, not a printed value. Like-named read-outs stand apart in the source and are kept apart here.

Experiments:
Aeromonas spp. = assay: MIC by agar dilution (NCCLS M7-A4), 288 enteropathogenic isolates, eight quinolones; format: cell-based; details: Aeromonas spp. (n = 16)
Shigella spp. = assay: MIC by NCCLS broth microdilution, 1100 Japanese clinical isolates 1997-1998; format: cell-based; details: Shigella spp. (n=34)
Enterococcus faecalis = assay: MIC by agar dilution (NCCLS), 411 isolates Buenos Aires 1998-99; format: cell-based; details: Enterococcus faecalis (n = 48)
Streptococcus pyogenes = assay: MIC by NCCLS reference broth microdilution, 450 respiratory tract pathogens; format: cell-based; details: Streptococcus pyogenes
Staphylococcus aureus [1] = assay: as above; format: cell-based
Citrobacter freundii = assay: MIC by NCCLS broth microdilution, 1100 Japanese clinical isolates 1997-1998; format: cell-based
Campylobacter jejuni = assay: MIC by agar dilution (NCCLS M7-A4), 288 enteropathogenic isolates, gemifloxacin and 15 other antimicrobials; details: for MIC: Campylobacter jejuni
P. aeruginosa = assay: MIC by two-fold serial agar dilution, quinolone-resistant strains; format: cell-based; details: Pseudomonas aeruginosa
Moraxella catarrhalis = assay: MIC by two-fold serial agar dilution, Sensitivity Disk agar-N (Kitasato isolates); format: cell-based; details: Moraxella catarrhalis (22)
[2] = system: Staphylococcus epidermidis; assay: MIC by NCCLS broth microdilution, 1100 Japanese clinical isolates 1997-1998; format: cell-based; details: for MIC50 / MIC90: Staphylococcus epidermidis
Hafnia alvei = assay: MIC by agar dilution (NCCLS M7-A4), 288 enteropathogenic isolates, gemifloxacin and 15 other antimicrobials; format: cell-based; details: Hafnia alvei N= 32
Streptococcus pneumoniae = assay: MIC by NCCLS reference broth microdilution, 450 respiratory tract pathogens; format: cell-based; details: Streptococcus pneumoniae
Providencia rettgeri = assay: MIC by NCCLS broth microdilution, 1100 Japanese clinical isolates 1997-1998; format: cell-based
Staphylococcus aureus [3] = assay: MIC by agar dilution (NCCLS), 411 isolates Buenos Aires 1998-99; format: cell-based; details: for MIC90: Staphylococcus aureus
Yersinia enterocolitica = assay: MIC by agar dilution (NCCLS M7-A4), 288 enteropathogenic isolates, gemifloxacin and 15 other antimicrobials; format: cell-based; details: Yersinia enterocolitica N= 22
[4] = erythromycin resistant C phenotype [MLSB] (n = 20)
[5] = erythromycin resistant I phenotype [MLSB] (n = 20)
[6] = β-lactamase positive and erythromycin resistant (n = 10)
[7] = Staphylococcus epidermidis oxacillin resistant (n=43)
[8] = Staphylococcus epidermidis oxacillin susceptible (n=35)
[9] = 24 h, read-out: MIC (mg/L) Range
[10] = Streptococcus pneumoniae (n = 100)
[11] = erythromycin resistant M phenotype (n = 16)
[12] = erythromycin resistant MLSB phenotype (n = 16)
[13] = penicillin intermediate (n = 16)
[14] = penicillin susceptible (n = 20)
[15] = S. aureus, Methicillin resistant (n = 14)
[16] = S. aureus, Methicillin susceptible (n = 66)

Structure (SMILES): C[C@H]1COc2c(N3CCN(C)CC3)c(F)cc3c(=O)c(C(=O)O)cn1c23 [Levofloxacin, levofloxacin]
- % Susceptible (Aeromonas spp.): 100%
- MIC50 (Aeromonas spp.): ≤ 0.015 µg/mL
- MIC90 (Aeromonas spp.): ≤ 0.015 µg/mL
- MIC Range (Aeromonas spp.): ≤0.015 to 0.06 µg/mL
- MIC50 (Shigella spp.): 0.016 µg/mL (≈ 0.0443 µM)
- MIC90 (Shigella spp.): 0.063 µg/mL (≈ 0.174 µM)
- MIC Range (Shigella spp.): 0.016 to 0.063 µg/mL
- MIC90 (Enterococcus faecalis): > 32 µg/mL
- MIC (Streptococcus pyogenes; Streptococcus pyogenes (n = 100)): 0.06 to 2 µg/mL (≈ 0.166 to 5.53 µM)
- MIC (Streptococcus pyogenes; [4]): 0.25 to 1 µg/mL (≈ 0.692 to 2.77 µM)
- MIC50 (Streptococcus pyogenes; [4]): 0.25 µg/mL (≈ 0.692 µM)
- MIC90 (Streptococcus pyogenes; [4]): 0.25 µg/mL (≈ 0.692 µM)
- MIC (Streptococcus pyogenes; [5]): 0.25 to 2 µg/mL (≈ 0.692 to 5.53 µM)
- MIC50 (Streptococcus pyogenes; [5]): 0.25 µg/mL (≈ 0.692 µM)
- MIC90 (Streptococcus pyogenes; [5]): 0.25 µg/mL (≈ 0.692 µM)
- MIC (Streptococcus pyogenes; erythromycin resistant M phenotype (n = 20)): 0.06 to 1 µg/mL (≈ 0.166 to 2.77 µM)
- MIC (Streptococcus pyogenes; fully susceptible (n = 20)): 0.25 to 2 µg/mL (≈ 0.692 to 5.53 µM)
- MIC (Streptococcus pyogenes; multi-drug resistant (n = 20)): 0.25 to 1 µg/mL (≈ 0.692 to 2.77 µM)
- MIC (Staphylococcus aureus [1]; Staphylococcus aureus (n = 50)): 0.03 to 2 µg/mL (≈ 0.083 to 5.53 µM)
- MIC50 (Staphylococcus aureus [1]; Staphylococcus aureus (n = 50)): 1 µg/mL (≈ 2.77 µM)
- MIC90 (Staphylococcus aureus [1]; Staphylococcus aureus (n = 50)): 2 µg/mL (≈ 5.53 µM)
- MIC (Staphylococcus aureus [1]; β-lactamase negative (n = 20)): 0.03 to 2 µg/mL (≈ 0.083 to 5.53 µM)
- MIC50 (Staphylococcus aureus [1]; β-lactamase negative (n = 20)): 2 µg/mL (≈ 5.53 µM)
- MIC90 (Staphylococcus aureus [1]; β-lactamase negative (n = 20)): 2 µg/mL (≈ 5.53 µM)
- MIC (Staphylococcus aureus [1]; β-lactamase positive (n = 20)): 1 to 2 µg/mL (≈ 2.77 to 5.53 µM)
- MIC50 (Staphylococcus aureus [1]; β-lactamase positive (n = 20)): 1 µg/mL (≈ 2.77 µM)
- MIC90 (Staphylococcus aureus [1]; β-lactamase positive (n = 20)): 2 µg/mL (≈ 5.53 µM)
- MIC50 (Staphylococcus aureus [1]; [6]): 1 µg/mL (≈ 2.77 µM)
- MIC90 (Staphylococcus aureus [1]; [6]): 2 µg/mL (≈ 5.53 µM)
- MIC50 (Citrobacter freundii; Citrobacter freundii): 0.125 µg/mL (≈ 0.346 µM)
- MIC90 (Citrobacter freundii; Citrobacter freundii (n=39)): 1 µg/mL (≈ 2.77 µM)
- MIC Range (Citrobacter freundii; Citrobacter freundii (n=39)): 0.016 to 1 µg/mL
- MIC (mg/L) Range (Campylobacter jejuni; Campylobacter jejuni N= 91): 0.06 to 128 mg/L
- MIC (Campylobacter jejuni; read-out: MIC (mg/L) 50%): 8 mg/L (≈ 22.1 µM)
- MIC (Campylobacter jejuni; read-out: MIC (mg/L) 90%): 32 mg/L (≈ 88.6 µM)
- MIC (P. aeruginosa): 2 µg/mL (≈ 5.53 µM)
- MIC50 (Moraxella catarrhalis): 0.063 µg/mL (≈ 0.174 µM)
- MIC90 (Moraxella catarrhalis): 0.063 µg/mL (≈ 0.174 µM)
- MIC Range (Moraxella catarrhalis): 0.031 to 0.063 µg/mL
- MIC Range [2, 7]: 0.25 to 16 µg/mL
- MIC Range [2, 8]: 0.063 to 8 µg/mL
- MIC50 [2, 7]: 4 µg/mL (≈ 11.1 µM)
- MIC90 [2, 7]: 8 µg/mL (≈ 22.1 µM)
- MIC50 [2, 8]: 0.25 µg/mL (≈ 0.692 µM)
- MIC90 [2, 8]: 4 µg/mL (≈ 11.1 µM)
- MIC (Hafnia alvei; [9]): 0.015 to 0.03 mg/L (≈ 0.0415 to 0.083 µM)
- MIC (Hafnia alvei; read-out: MIC (mg/L) 50%): 0.03 mg/L (≈ 0.083 µM)
- MIC (Hafnia alvei; read-out: MIC (mg/L) 90%): 0.03 mg/L (≈ 0.083 µM)
- MIC (Streptococcus pneumoniae; [10]): 0.25 to 2 µg/mL (≈ 0.692 to 5.53 µM)
- MIC50 (Streptococcus pneumoniae; [10]): 1 µg/mL (≈ 2.77 µM)
- MIC90 (Streptococcus pneumoniae; [10]): 1 µg/mL (≈ 2.77 µM)
- MIC (Streptococcus pneumoniae; [11]): 1 to 2 µg/mL (≈ 2.77 to 5.53 µM)
- MIC50 (Streptococcus pneumoniae; [11]): 1 µg/mL (≈ 2.77 µM)
- MIC90 (Streptococcus pneumoniae; [11]): 1 µg/mL (≈ 2.77 µM)
- MIC (Streptococcus pneumoniae; [12]): 0.5 to 2 µg/mL (≈ 1.38 to 5.53 µM)
- MIC50 (Streptococcus pneumoniae; [12]): 1 µg/mL (≈ 2.77 µM)
- MIC90 (Streptococcus pneumoniae; [12]): 1 µg/mL (≈ 2.77 µM)
- MIC (Streptococcus pneumoniae; multi-drug resistant (n = 16)): 0.5 to 1 µg/mL (≈ 1.38 to 2.77 µM)
- MIC50 (Streptococcus pneumoniae; multi-drug resistant (n = 16)): 1 µg/mL (≈ 2.77 µM)
- MIC90 (Streptococcus pneumoniae; multi-drug resistant (n = 16)): 1 µg/mL (≈ 2.77 µM)
- MIC (Streptococcus pneumoniae; [13]): 0.5 to 1 µg/mL (≈ 1.38 to 2.77 µM)
- MIC50 (Streptococcus pneumoniae; [13]): 1 µg/mL (≈ 2.77 µM)
- MIC90 (Streptococcus pneumoniae; [13]): 1 µg/mL (≈ 2.77 µM)
- MIC (Streptococcus pneumoniae; penicillin resistant (n = 18)): 0.5 to 2 µg/mL (≈ 1.38 to 5.53 µM)
- MIC50 (Streptococcus pneumoniae; penicillin resistant (n = 18)): 0.5 µg/mL (≈ 1.38 µM)
- MIC90 (Streptococcus pneumoniae; penicillin resistant (n = 18)): 1 µg/mL (≈ 2.77 µM)
- MIC (Streptococcus pneumoniae; [14]): 0.25 to 1 µg/mL (≈ 0.692 to 2.77 µM)
- MIC50 (Streptococcus pneumoniae; [14]): 1 µg/mL (≈ 2.77 µM)
- MIC90 (Streptococcus pneumoniae; [14]): 1 µg/mL (≈ 2.77 µM)
- MIC50 (Providencia rettgeri; Providencia rettgeri): 0.125 µg/mL (≈ 0.346 µM)
- MIC90 (Providencia rettgeri; Providencia rettgeri (n=12)): 8 µg/mL (≈ 22.1 µM)
- MIC Range (Providencia rettgeri; Providencia rettgeri (n=12)): 0.125 to 8 µg/mL
- Resistance (%) (Staphylococcus aureus [3]; [15]): 100%
- Resistance (%) (Staphylococcus aureus [3]; [16]): 0%
- MIC Range (Staphylococcus aureus [3]; Staphylococcus aureus (n = 80)): 0.06 to 8 µg/mL
- MIC90 (Staphylococcus aureus [3]; [15]): 8 µg/mL (≈ 22.1 µM)
- MIC90 (Staphylococcus aureus [3]; [16]): 0.25 µg/mL (≈ 0.692 µM)
- MIC90 (Staphylococcus aureus [3]; Staphylococcus aureus (n = 80)): 4 µg/mL (≈ 11.1 µM)
- MIC (Yersinia enterocolitica; [9]): 0.03 to 0.5 mg/L (≈ 0.083 to 1.38 µM)
- MIC (Yersinia enterocolitica; read-out: MIC (mg/L) 50%): 0.06 mg/L (≈ 0.166 µM)
- MIC (Yersinia enterocolitica; read-out: MIC (mg/L) 90%): 0.06 mg/L (≈ 0.166 µM)
